Experimental findings from US8389544B2, “Isoquinolone compounds as subtype-selective agonists for melatonin receptors MT1 and MT2” (The Hong Kong University of Science and Technology, priority 2007, dated 2013) are described below.

Structures are written as SMILES. Where two headings read alike, the source gives them in different places.

In one test the target is T1, MT2 receptor (Homo sapiens, UniProt P49286).
T1 sequence (P49286 1-362): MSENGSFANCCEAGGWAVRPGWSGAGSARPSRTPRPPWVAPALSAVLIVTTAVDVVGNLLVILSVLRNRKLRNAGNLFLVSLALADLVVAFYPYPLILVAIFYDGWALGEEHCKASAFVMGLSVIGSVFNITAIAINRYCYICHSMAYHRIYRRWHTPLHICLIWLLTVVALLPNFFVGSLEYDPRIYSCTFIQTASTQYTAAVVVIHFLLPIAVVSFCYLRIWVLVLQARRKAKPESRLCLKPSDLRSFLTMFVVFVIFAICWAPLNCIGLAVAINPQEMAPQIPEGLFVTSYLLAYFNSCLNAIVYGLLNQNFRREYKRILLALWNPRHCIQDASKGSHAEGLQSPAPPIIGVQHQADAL
In words: FLIPR Ca2+ mobilization assay, MT2. Format: cell-based. Further details: expressed in transfected cells; host or cells: COS-7 (monkey kidney fibroblast). The following applies: for Emax: read-out: % Response of 2-IMT; for agonist character / receptor subtype selectivity in words: FLIPR results, MT1 versus MT2; for % Response of 2-IMT: MT2, relative to 2-IMT response. On the procedure:
(§1) 1. FLIPR Ca^2+ Mobilization Assay
(§2) This assay indicates the ability of the novel compounds to activate MT1 and MT2 receptors by measuring downstream events of the activated receptor, in this case intracellular calcium mobilization.
(§3) 1. Intracellular Ca^2+ Mobilization Assay Using Fluorometric Imaging Plate Reader (FLIPR®)
(§4) An intracellular calcium mobilization assay was performed to screen the isoquinolone compounds against the two melatonin receptor subtypes, MT1 and MT2 on the fluorometric imaging plate reader (FLIPR®). In order to facilitate the screening process in a high-throughput manner, chimeric G proteins with the ability to couple to a range of GPCR as well as activate intracellular Ca^2+ were employed. The melatonin receptor subtype (either MT1 or MT2) was co-expressed with the G-protein chimeras in COS-7 (monkey kidney fibroblast) cells. During the assay, cells were exposed to the novel isoquinolone compounds and the corresponding change in fluorescence was measured. Both single point and dose-dependant assays were performed for each isoquinolone compound and based on the latter a dose response curve was generated and the corresponding EC50 for each receptor subtype determined.
(§5) Specifically, COS-7 cells were seeded at a density of 20,000 cells/well into 96-well plates designed for FLIPR assays, using Opti-MEM with 10% FCS at a volume of 100 μl/well. Transfection was carried out using Lipofectamine 2000® reagent. In each well, 0.2 μg of the GPCR and G protein cDNA were diluted with 25 μl of Opti-MEM and 0.2 μl of Lipofectamine 2000® was diluted with another 25 μl of Opti-MEM. They were added to appropriate wells after the two components were mixed for 20 min.
(§6) After 48 hours of incubation post-transfection, 50 μl of the transfection medium was removed from each well followed by the labelling of transfected cells with 100 μl of 2 μM Fluo-4 in calcium containing HBSS (Hank's balanced salt solution) with 20 mM HEPES (N-[2-hydroxyethyl]piperazine—N′-[2-ethanesulfonic acid]; pH 7.5) and 2.5 mM probenecid (anion exchanger inhibitor, freshly prepared) for 1 hour at 37° C. 70 μl of 3× drugs (isoquinolinone compounds encompassing the invention) were prepared and aliquoted into the corresponding wells in the V-well drug plate. Changes in fluorescence were detected in the FLIPR 96 with an excitation wavelength of 488 nm. The background fluorescence was adjusted to the range of 8,000 to 12,000 units by altering the laser power and exposure time (typically 0.4 W and 0.4 sec, respectively) for the FLIPR setup. 50 μl of each agonist solution was added to the corresponding wells and the fluorescent emission (between 510 and 560 nm) was monitored for 3 min. Results were expressed as change in fluorescent intensity units (FIU). Concentration-response curves were generated by determining the maximal change in FIU of each data set. Numerical analysis of the statistics and EC50 (median effective concentration) values were performed on GraphPad Prism version 3.03.
(§7) Then the intracellular Ca^2+ mobilization assays using the Fluorometric Imaging Plate Reader (FLIPR®) were performed as described above.
(Calcium flux is commonly read through the fluorescence of an indicator in the cells.)

The target in the next test is MT1 receptor (Homo sapiens, UniProt P48039). In words: FLIPR Ca2+ mobilization assay, MT1. Particulars: for % Response of 2-IMT: MT1, relative to 2-IMT response. It counts as cell-based. Further details: expressed in transfected cells; host or cells: COS-7 (monkey kidney fibroblast). How it is done: as §1, §2, §3, §4, §5, §6, §7
Sequence of MT1 receptor (P48039 whole entry): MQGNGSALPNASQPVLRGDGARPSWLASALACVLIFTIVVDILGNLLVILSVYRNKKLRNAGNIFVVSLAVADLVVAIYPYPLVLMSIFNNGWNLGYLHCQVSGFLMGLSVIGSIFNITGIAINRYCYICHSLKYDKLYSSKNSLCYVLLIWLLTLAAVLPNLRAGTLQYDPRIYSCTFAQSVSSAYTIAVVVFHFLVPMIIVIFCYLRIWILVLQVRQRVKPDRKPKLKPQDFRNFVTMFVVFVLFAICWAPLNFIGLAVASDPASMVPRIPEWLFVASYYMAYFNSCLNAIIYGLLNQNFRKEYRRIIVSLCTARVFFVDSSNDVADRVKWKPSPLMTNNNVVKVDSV
The mark [1] stands for this setting: Table 1, MT2 in COS-7 cells with chimeric G protein, log value, negative, NSR = no significant response, read-out: Log(EC50) ± SEM (converted).
[2] abbreviates: Table 1, MT1 in COS-7 cells with chimeric G protein, log value, negative, NSR = no significant response.
[3] abbreviates: Table 1, MT2 in COS-7 cells with chimeric G protein, log value, negative, NSR = no significant response.
Setting [4] is: Table 1, MT1 in COS-7 cells with chimeric G protein, log value, negative, NSR = no significant response, read-out: Log(EC50) ± SEM (converted).

`COc1cc2c(=O)n(C)ccc2cc1OCCCc1ccccc1` [IS017]: on MT2 receptor (setting [1]), the EC50 (as a rule, the concentration needed to bring the measured effect to its halfway point) was 107 nM. Further, the Emax at MT2 receptor is 107%. For the same compound, the “Log(EC50) ± SEM” value on MT1 receptor (setting [2]) is “NSR”.
Consider `COc1cc2ccn(C)c(=O)c2cc1OCc1ccccc1` [IS003], for which the “Log(EC50) ± SEM” value on MT2 receptor (setting [3]) and at MT1 receptor (setting [2]) was “NSR” each time.
As to `C=CCOc1c(OC)ccc2c(=O)n(C)ccc12` [IS007], the EC50 on MT2 receptor (setting [1]) is 3.47 nM; on MT2 receptor (read-out: EC50 MT2), 3.51 nM. Moreover, the Emax on MT2 receptor is 49.1%. Also, the “Log(EC50) ± SEM” value at MT1 receptor (setting [2]) is “NSR”.
Consider `COc1cc2c(=O)n(C)ccc2cc1O` [IS001, 6-Hydroxyl-7-methoxyl-2-methyl-1(2H)-isoquinolone], for which, on MT2 receptor (setting [3]), the “Log(EC50) ± SEM” value was “NSR”. The “% Response of 2-IMT” value on MT1 receptor (Table 1) was 71.9%. In addition, the EC50 at MT1 receptor (setting [4]) was 1580 nM.
Consider `COc1ccc2c(=O)n(C)ccc2c1OCc1ccc(Br)cc1` [IS009], for which, on MT2 receptor, the “agonist character / receptor subtype selectivity in words” value is given as “activated MT2 only” and the Emax worked out at 37.4%. Besides, at MT2 receptor (setting [1]), the concentration giving a half-maximal response (EC50) was 123 nM. Moreover, the “Log(EC50) ± SEM” value on MT1 receptor (setting [2]) is on record as “NSR”.
Turning to `COc1ccc(O)c2c(=O)n(C)ccc12` [IS030], the results for the “% Response of 2-IMT” value at MT2 receptor (Table 1) and on MT1 receptor (Table 1) were 39.4% and 67.5%, respectively. Also, the “Log(EC50) ± SEM” value on MT2 receptor (setting [3]) is listed as −5.52; on MT1 receptor (setting [2]), −5.98 ± 0.04.
Regarding `COc1ccc2c(=O)n(C)ccc2c1OCCCc1ccccc1` [IS008], at MT2 receptor, the “agonist character / receptor subtype selectivity in words” value is reported as “activated MT2 only” and the Emax turned out to be 57.6%. Further, the EC50 at MT2 receptor (setting [1]) was 562 nM. In addition, the “Log(EC50) ± SEM” value on MT1 receptor (setting [2]) is on record as “NSR”.
With `Cn1ccc2ccc(O)c(O)c2c1=O` [IS037], the EC50 at MT2 receptor (setting [1]) is 525 nM. For the same compound, the Emax on MT2 receptor came to 42.1%. Besides, the “Log(EC50) ± SEM” value on MT1 receptor (setting [2]) is on record as “NSR”.
Turning to `COc1ccc2c(=O)n(C)ccc2c1OCc1ccccc1` [IS005], at MT2 receptor, the “activity / efficacy at MT2 compared to 2-IMT” value turned out to be 63%, the “agonist character / receptor subtype selectivity in words” value is given as “partial agonist” and the Emax was determined as 62.9%. In addition, the EC50 at MT2 receptor (read-out: EC50 MT2) was found to be 48.5 nM. Besides, on MT1 receptor (Table 1), the “% Response of 2-IMT” value came out at 30.5%. Also, the “activity / activation at MT1 compared to 2-IMT” value on MT1 receptor (running text b158, b160) came to 31%. Also, the EC50 on MT1 receptor (running text b158, read-out: EC50 MT1) was determined as 5.81 nM.
`COc1ccc(C(=O)COc2c(OC)ccc3c(=O)n(C)ccc23)cc1` [IS010]: the “% Response of 2-IMT” value at MT2 receptor (Table 1) is 53.0%. The “Log(EC50) ± SEM” value at MT2 receptor (setting [3]) is on record as −6.35 ± 0.06; at MT1 receptor (setting [2]), “NSR”.
Turning to `COc1cc2c(=O)n(C)ccc2cc1OCc1ccccc1` [IS016], the values for the EC50 at MT2 receptor (setting [1]) and on MT1 receptor (setting [4]) were 2750 nM and 1350 nM, respectively. Further, the Emax at MT2 receptor was 145%. Also, the “% Response of 2-IMT” value on MT1 receptor (Table 1) amounted to 65.3%.
Consider `COc1cc2ccn(C)c(=O)c2cc1OCCCc1ccccc1` [IS013], for which the “% Response of 2-IMT” value came out at 101.9% at MT2 receptor (Table 1) and 75.0% at MT1 receptor (Table 1). Besides, the “Log(EC50) ± SEM” value was −6.00 ± 0.01 on MT2 receptor (setting [3]) and −5.22 ± 1.28 at MT1 receptor (setting [2]).
On to `COc1cc2ccn(C)c(=O)c2cc1O` [IS002, 7-hydroxyl-6-methoxyl-2-methyl-1(2H)-isoquinolone], for which the EC50 on MT2 receptor (setting [1]) is 871 nM; on MT1 receptor (setting [4]), 1740 nM. Also, at MT2 receptor, the Emax is 47%. On MT1 receptor (Table 1), the “% Response of 2-IMT” value turned out to be 31.7%.
For `COc1cc2ccn(C)c(=O)c2cc1OCCCI` [IS101, 7-(3-iodopropyloxyl)-6-methoxyl-2-methyl-1(2H)-isoquinolone], the half-maximal effective concentration (EC50) on MT2 receptor (setting [1]) was 603 nM. For the same compound, the Emax at MT2 receptor is 65.8%. Moreover, the “Log(EC50) ± SEM” value at MT1 receptor (setting [2]) is reported as “NSR”.
Consider `COc1ccc2c(=O)n(C)ccc2c1OCc1ccc(C(C)(C)C)cc1` [IS532], for which the “% Response of 2-IMT” value on MT2 receptor (Table 1) came to 22.3%. Moreover, the “Log(EC50) ± SEM” value is −5.57 ± 0.75 on MT2 receptor (setting [3]) and “NSR” at MT1 receptor (setting [2]).
On to `COc1cc2ccn(C)c(=O)c2cc1OCCCCCl` [IS098], for which the EC50 on MT2 receptor (setting [1]) is 6.17 nM. Moreover, the Emax on MT2 receptor was determined as 44.7%. On MT1 receptor (setting [2]), the “Log(EC50) ± SEM” value is reported as “NSR”.
